The supplement of paper PMC12137928
Where a name gives a salt, the structure may show the parent alone.

Test system: HCT116
Conditions: 72 h
How it was run: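 HCT116 cells went into 1536-well plates at 250 per well. CellTiter-Glo luminescence was expressed relative to vehicle (0%) and positive control (-100%) and then pattern-corrected. Both IC50 and maximal efficacy were taken from four-parameter Hill fits.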

Structure (SMILES) | IC50 cell viability (ICRF193 0 nM) | IC50 cell viability (ICRF193 200 nM)
CCN(CC)CC(=O)Nc1c(C)cccc1C [Lidocaine] | > 45.8 µM | > 45.8 µM
CC1(C)O[C@H]2CC(=O)OC[C@]23[C@H]2CC[C@@]4(C)[C@H](c5ccoc5)OC(=O)[C@H]5O[C@]54[C@]2(C)C(=O)C[C@@H]13 [Limoni] | > 45.8 µM | > 45.8 µM
CC#CCn1c(N2CCC[C@@H](N)C2)nc2c1c(=O)n(Cc1nc(C)c3ccccc3n1)c(=O)n2C [Linagliptin] | > 45.8 µM | > 45.8 µM
CCC[C@@H]1C[C@@H](C(=O)N[C@@H]([C@H]2O[C@H](SC)[C@H](O)[C@@H](O)[C@H]2O)[C@@H](C)O)N(C)C1 [Lincomycin hydrochloride] | > 45.8 µM | > 45.8 µM
CC(=O)NC[C@H]1CN(c2ccc(N3CCOCC3)c(F)c2)C(=O)O1 [Linezolid] | > 45.8 µM | > 45.8 µM
CC/C=C\C/C=C\C/C=C\CCCCCCCC(=O)O [Linolenic acid] | > 45.8 µM | > 45.8 µM
N[C@@H](Cc1cc(I)c(Oc2ccc(O)c(I)c2)c(I)c1)C(=O)O [Liothyronine Sodium] | > 45.8 µM | > 45.8 µM
COc1cccc(N(C)C(=S)Oc2ccc3c(c2)CCCC3)n1 [Liranaftate] | > 45.8 µM | > 45.8 µM
NCCCC[C@H](N[C@@H](CCc1ccccc1)C(=O)O)C(=O)N1CCC[C@H]1C(=O)O [Lisinopril dihydrate] | > 45.8 µM | > 45.8 µM
O=C(O)c1ccccc1Nc1cc(Cl)ccc1C(=O)O [Lobenzarit sodium] | > 45.8 µM | > 45.8 µM
N#Cc1cc(NC(=O)C(=O)O)c(Cl)c(NC(=O)C(=O)O)c1 [Lodoxamide] | > 45.8 µM | > 45.8 µM
CN(CCCN1c2ccccc2CCc2ccccc21)CC(=O)c1ccc(Cl)cc1 [Lofepramine hydrochloride] | > 45.8 µM | > 45.8 µM
CC(Oc1c(Cl)cccc1Cl)C1=NCCN1 (stereo not drawn) [Lofexidine] | > 45.8 µM | > 45.8 µM
CCn1cc(C(=O)O)c(=O)c2cc(F)c(N3CCNC(C)C3)c(F)c21 (stereo not drawn) [Lomefloxacin hydrochloride] | > 45.8 µM | > 45.8 µM
O=NN(CCCl)C(=O)NC1CCCCC1 [Lomustine] | > 45.8 µM | > 45.8 µM
N[C@@H](C(=O)N[C@@H]1C(=O)N2C(C(=O)O)=C(Cl)CC[C@H]12)c1ccccc1 [Loracarbef] | > 45.8 µM | > 45.8 µM
CN1C(C(=O)Nc2ccccn2)=C(O)c2sc(Cl)cc2S1(=O)=O [Lornoxicam] | > 45.8 µM | > 45.8 µM
CCCCc1nc(Cl)c(CO)n1Cc1ccc(-c2ccccc2-c2nnn[nH]2)cc1 [Losartan] | > 45.8 µM | > 45.8 µM
CCOC(=O)O[C@]1(C(=O)OCCl)CC[C@H]2[C@@H]3CCC4=CC(=O)C=C[C@]4(C)[C@H]3[C@@H](O)C[C@@]21C [Loteprednol etabonate] | > 45.8 µM | > 45.8 µM
CN1CCN(C2=Nc3ccccc3Oc3ccc(Cl)cc32)CC1 [Loxapine succinate] | > 45.8 µM | > 45.8 µM
CCCCCN(CCCOC)C(=O)C(CCC(=O)O)NC(=O)c1ccc(Cl)c(Cl)c1 (stereo not drawn) [Loxiglumide] | > 45.8 µM | > 45.8 µM
CC(C(=O)O)c1ccc(CC2CCCC2=O)cc1 (stereo not drawn) [Loxoprofen] | > 45.8 µM | > 45.8 µM

Structure (SMILES) | IC50 cell viability (ICRF193 0 nM) | IC50 cell viability (ICRF193 200 nM)
CCCCC(F)(F)[C@@]1(O)CC[C@H]2[C@@H](CC(=O)[C@@H]2CCCCCCC(=O)O)O1 [Lubiprostone] | > 45.8 µM | > 45.8 µM
Cc1ccc(NC(=O)C2(c3ccc4c(c3)OC(F)(F)O4)CC2)nc1-c1cccc(C(=O)O)c1 [Lumacaftor] | > 45.8 µM | > 45.8 µM
Cc1ccc(Nc2c(F)cccc2Cl)c(CC(=O)O)c1 [Lumiracoxib] | > 45.8 µM | > 45.8 µM
CCCCCCO[C@@H](C)c1cccc(-c2csc(NC(=O)c3cc(Cl)c(/C=C(\C)C(=O)O)c(Cl)c3)n2)c1OC [Lusutrombopag] | > 45.8 µM | > 45.8 µM
CC(C)=CCC/C(C)=C/C=C/C(C)=C/C=C/C(C)=C/C=C/C=C(C)/C=C/C=C(C)/C=C/C=C(\C)CCC=C(C)C [Lycopene] | > 45.8 µM | > 45.8 µM
CN(C)[C@@H]1C(O)=C(C(=O)NCNCCCC[C@H](N)C(=O)O)C(=O)[C@@]2(O)C(O)=C3C(=O)c4c(O)cccc4[C@@](C)(O)[C@H]3C[C@@H]12 [Lymecycline] | > 45.8 µM | > 45.8 µM
C#C[C@]1(O)CC[C@H]2[C@@H]3CCC4=CCCC[C@@H]4[C@H]3CC[C@@]21C [Lynestrenol] | > 45.8 µM | > 45.8 µM
Cc1cnc(NC(=O)C2=C(O)c3ccccc3S(=O)(=O)N2C)s1 [MELOXICAM SODIUM] | > 45.8 µM | > 45.8 µM
Cc1cccc(C)c1NC(=O)C1CCCCN1C (stereo not drawn) [MEPIVACAINE HYDROCHLORIDE] | > 45.8 µM | > 45.8 µM
COC(=O)C(c1ccccc1)C1CCCCN1 (stereo not drawn) [METHYLPHENIDATE HYDROCHLORIDE] | > 45.8 µM | > 45.8 µM
CS(=O)(=O)n1cc2c(n1)CN([C@H]1CO[C@H](c3cc(F)ccc3F)[C@@H](N)C1)C2 [MK-3102] | > 45.8 µM | > 45.8 µM
CC(C)(C)NCC(O)c1cc(Cl)c(N)c(C(F)(F)F)c1 (stereo not drawn) [Mabuterol hydrochloride] | > 45.8 µM | > 45.8 µM
CCCNS(=O)(=O)Nc1ncnc(OCCOc2ncc(Br)cn2)c1-c1ccc(Br)cc1 [Macitentan] | > 45.8 µM | > 45.8 µM
NCc1ccc(S(N)(=O)=O)cc1 [Mafenide hydrochloride] | > 45.8 µM | > 45.8 µM
CCOC(=O)CC(SP(=S)(OC)OC)C(=O)OCC (stereo not drawn) [Malathion] | > 45.8 µM | > 45.8 µM
O=C(O)/C=C\C(=O)O [Maleic acid] | > 45.8 µM | > 45.8 µM
CC(C)OC(=O)C(C(=O)OC(C)C)=C1SC=CS1 [Malotilate] | > 45.8 µM | > 45.8 µM
CN1CCN(c2c(F)cc3c(=O)c(C(=O)O)cn4c3c2OCN4C)CC1 [Marbofloxacin] | > 45.8 µM | > 45.8 µM
C=C1/C(=C\C=C2/CCC[C@]3(C)[C@@H]([C@H](C)OCCC(C)(C)O)CC[C@@H]23)C[C@@H](O)C[C@@H]1O [Maxacalcitol-D6] | > 45.8 µM | > 45.8 µM
CN1[C@@H]2CCC(C)(C)[C@H]1C[C@H](OC(=O)C(O)(c1cccs1)c1cccs1)C2 [Mazaticol] | > 45.8 µM | > 45.8 µM
CCN(CCCCOC(=O)c1ccc(OC)c(OC)c1)C(C)Cc1ccc(OC)cc1 (stereo not drawn) [Mebeverine hydrochloride] | > 45.8 µM | > 45.8 µM
C[N+](C)(C)C1CCC(CC2CCC([N+](C)(C)C)CC2)CC1 (stereo not drawn) [Mebezonium Iodide] | > 45.8 µM | > 45.8 µM

Structure (SMILES) | IC50 cell viability (ICRF193 0 nM) | IC50 cell viability (ICRF193 200 nM)
Cc1cc(C)c(NC(=O)CN(CC(=O)O)CC(=O)O)c(C)c1Br [Mebrofenin] | > 45.8 µM | > 45.8 µM
CCC(C)C(C)(COC(N)=O)COC(N)=O (stereo not drawn) [Mebutamate] | > 45.8 µM | > 45.8 µM
CNC1(C)C2CCC(C2)C1(C)C (stereo not drawn) [Mecamylamine] | > 45.8 µM | > 45.8 µM
Cc1ccc(Cl)c(Nc2ccccc2C(=O)O)c1Cl [Meclofenamate sodium] | > 45.8 µM | > 45.8 µM
CN(C)CCOC(=O)COc1ccc(Cl)cc1 [Meclofenoxate hydrochloride] | > 45.8 µM | > 45.8 µM
O=P(O)(O)CP(=O)(O)O [Medronic acid] | > 45.8 µM | > 45.8 µM
CC(=O)O[C@]1(C(C)=O)CC[C@H]2[C@@H]3C[C@H](C)C4=CC(=O)CC[C@]4(C)[C@H]3CC[C@@]21C [Medroxyprogesterone acetate] | > 45.8 µM | > 45.8 µM
CC(=O)[C@H]1CC[C@H]2[C@@H]3C[C@H](C)C4=CC(=O)CC[C@]4(C)[C@H]3[C@@H](O)C[C@]12C [Medrysone] | > 45.8 µM | > 45.8 µM
Cc1cccc(Nc2ccccc2C(=O)O)c1C [Mefenamic acid] | > 45.8 µM | > 45.8 µM
CC(Cc1ccccc1)NCCCCl (stereo not drawn) [Mefenorex] | > 45.8 µM | > 45.8 µM
CN(CC1(C)CCCO1)S(=O)(=O)c1ccc(Cl)c(S(N)(=O)=O)c1 (stereo not drawn) [Mefruside] | > 45.8 µM | > 45.8 µM
CC(=O)O[C@]1(C(C)=O)CC[C@H]2[C@@H]3C=C(C)C4=CC(=O)CC[C@]4(C)[C@H]3CC[C@@]21C [Megestrol acetate] | > 45.8 µM | > 45.8 µM
CNC[C@H](O)[C@@H](O)[C@H](O)[C@H](O)CO [Meglumine] | > 45.8 µM | > 45.8 µM
COc1ccc2[nH]cc(CCNC(C)=O)c2c1 [Melatonin] | > 45.8 µM | > 45.8 µM
CCCCC/C=C/C/C=C/CCCCCCCC(=O)NC(C)c1ccccc1 (stereo not drawn) [Melinamide] | > 45.8 µM | > 45.8 µM
N[C@@H](Cc1ccc(N(CCCl)CCCl)cc1)C(=O)O [Melphalan] | > 45.8 µM | > 45.8 µM
CC12CC3CC(C)(C1)CC(N)(C3)C2 [Memantine hydrochloride] | > 45.8 µM | > 45.8 µM
CC1=CC(=O)c2ccccc2C1=O [Menadione] | > 45.8 µM | > 45.8 µM
CC(C)=CCC/C(C)=C/CC/C(C)=C/CC/C(C)=C/CC/C(C)=C/CC1=C(C)C(=O)c2ccccc2C1=O [Menaquinone] | > 45.8 µM | > 45.8 µM
C[N+]1(C)CCCC(OC(=O)C(O)(c2ccccc2)c2ccccc2)C1 (stereo not drawn) [Mepenzolate bromide] | > 45.8 µM | > 45.8 µM
